According to publication PMC3083694, “Effects of Intermediates between Vitamins K2 and K3 on Mammalian DNA Polymerase Inhibition and Anti-Inflammatory Activity” (International Journal of Molecular Sciences, 2011):

Tests used:
Human DNA polymerase κ = target: T1, Human DNA polymerase κ (Homo sapiens, UniProt Q9UBT6); experiment: DNA polymerase activity assay, human pol κ; assay type: biochemical; details: for Inhibitory effect on human pol κ activity: 50 μM of each compound, Figure 2
T1 construct: made in house
T1 sequence (Q9UBT6 1-560 limits assumed): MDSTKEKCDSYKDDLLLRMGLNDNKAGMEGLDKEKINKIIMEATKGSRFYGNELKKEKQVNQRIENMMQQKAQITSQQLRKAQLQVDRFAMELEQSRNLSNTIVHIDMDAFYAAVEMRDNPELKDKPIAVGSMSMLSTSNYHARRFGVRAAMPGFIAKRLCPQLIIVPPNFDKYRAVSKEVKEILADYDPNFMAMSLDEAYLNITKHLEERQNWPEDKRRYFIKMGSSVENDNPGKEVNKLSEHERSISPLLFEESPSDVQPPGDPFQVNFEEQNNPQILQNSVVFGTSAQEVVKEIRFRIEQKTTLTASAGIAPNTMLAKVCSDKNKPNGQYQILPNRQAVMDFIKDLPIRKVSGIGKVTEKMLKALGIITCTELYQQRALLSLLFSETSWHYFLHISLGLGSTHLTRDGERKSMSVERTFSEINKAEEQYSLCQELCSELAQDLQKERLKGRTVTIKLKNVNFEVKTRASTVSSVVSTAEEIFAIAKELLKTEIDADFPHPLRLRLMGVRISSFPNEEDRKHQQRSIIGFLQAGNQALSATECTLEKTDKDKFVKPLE
Procedure: Pols from mammals, a fish (cherry salmon), an insect (fruit fly) and a plant (cauliflower) were purified, and prokaryotic pols and other DNA metabolic enzymes, such as T7 RNA polymerase, T4 polynucleotide kinase and bovine deoxyribonuclease I, were purchased as described in our previous report. The activities of all pols and other DNA metabolic enzymes were measured as described in previous reports.
The components of the pol assay were poly(dA)/oligo(dT)18 and dTTP as the DNA template-primer and 2′-deoxyribonucleoside 5′-triphosphate (dNTP) substrate, respectively. VK2, VK3, and their synthesized derivatives (i.e., MK-3, MK-2 and MK-1) were dissolved in dimethyl sulfoxide (DMSO) at various concentrations and sonicated for 30 s. The sonicated samples (4 μL) were mixed with 16 μL of each pol enzyme (final amount, 0.05 units) in 50 mM Tris-HCl (pH 7.5) containing 1 mM dithiothreitol, 50% glycerol and 0.1 mM EDTA, and kept at 0 °C for 10 min. These inhibitor–enzyme mixtures (8 μL) were added to 16 μL of each standard enzyme reaction mixture (50 mM Tris-HCl [pH 7.5], 1 mM dithiothreitol, 1 mM MgCl2, 15% glycerol, 10 μM poly(dA)/oligo(dT)18 and 10 μM [^3H]-dTTP), and incubation was carried out at 37 °C for 60 min, except for Taq pol, which was incubated at 74 °C for 60 min. Activity without the inhibitor was considered to be 100%, and the activity remaining at each concentration of inhibitor was determined relative to this value. One unit of pol activity was defined as the amount of enzyme that catalyzed the incorporation of 1 nmol dNTP (dTTP) into the synthetic DNA template-primer (poly(dA)/oligo(dT)18, A/T = 2/1) in 60 min at 37 °C under normal reaction conditions for each enzyme (scintillation counts: approximately 1 pmol of incorporated radioactive nucleotides = 100 cpm).

[1] = test system: TPA-induced edema on mouse ear; experiment: TPA-induced mouse ear inflammatory test; assay type: in vivo; details: 250 or 500 μg applied to ear 30 min before TPA (0.5 μg); edema evaluated after 7 h; Figure 3
Procedure: All animal studies were performed according to the guidelines outlined in the “Care and Use of Laboratory Animals” of Kobe University. The animals were anesthetized with pentobarbital before undergoing cervical dislocation. Female 8-week-old C57BL/6 mice that had been bred in-house with free access to food and water were used for all experiments. All of the mice were maintained under a 12-h light/dark cycle and housed at a room temperature of 25 °C.
The mouse inflammatory test was performed according to Gschwendt’s method. In brief, an acetone solution of the VK2 and VK3 intermediates (250 or 500 μg in 20 μL) or 20 μL of acetone as a vehicle control was applied to the inner part of the mouse ear. Thirty minutes after the test compound was applied, a TPA solution (0.5 μg/20 μL of acetone) was applied to the same part of the ear. To the other ear of the same mouse, methanol, followed by TPA solution, was applied as a control. After 7 h, a disk (6 mm diameter) was obtained from the ear and weighed. The inhibitory effect (IE) is presented as a ratio of the increase in weight of the ear disks: IE=[(TPA only)−(tested compound plus TPA)]/[(TPA only)−(vehicle)]×100

[2] = test system: LPS-induced production of TNF-α in RAW264.7 cells; experiment: LPS-induced TNF-α production in mouse macrophages (ELISA); assay type: cell-based; details: Figure 4; for Inhibitory effect on LPS-stimulated TNF-α production: 10 and 50 μM tested, concentration not specified; for Suppression of LPS-stimulated production of TNF-α: then 100 ng/mL LPS 24 h
Procedure: A mouse macrophage cell line, RAW264.7, was obtained from American Type Culture Collection (ATCC) (Manassas, VA, U.S.). The cells were cultured in Eagle’s Minimum Essential Medium (MEM) supplemented with 4.5 g of glucose per liter plus 10% fetal calf serum, 5 mM L-glutamine, 50 units/mL penicillin and 50 units/mL streptomycin. The cells were cultured at 37 °C in standard medium in a humidified atmosphere of 5% CO2–95% air.
RAW264.7 cells were placed in a 12-well plate at 5 × 10^4 cells/well and incubated for 24 h. The cells were pretreated with the VK2 and VK3 intermediates (final concentrations of 10 and 50 μM) for 30 min before the addition of 100 ng/mL of LPS. After stimulation with LPS for 24 h, the cell culture medium was collected to measure the amount of TNF-α secreted. The concentration of TNF-α in the culture medium was quantified by using a commercially available enzyme-linked immunosorbent assay (ELISA) development system (Bay Bioscience Co., Ltd., Kobe, Japan) in accordance with the manufacturer’s protocol.

Structure (SMILES) | Inhibitory effect on human pol κ activity (Human DNA polymerase κ) | Anti-inflammatory activity toward TPA-induced edema on mouse ear [1] | Inhibitory effect on LPS-stimulated TNF-α production [2] | IC50 (Human DNA polymerase κ; Y-family pol, read-out: IC50 Value of MK-2, Human DNA polymerase κ) [µM] | Suppression of LPS-stimulated production of TNF-α ([2]; 10 μM compound 30 min) | Suppression of LPS-stimulated production of TNF-α ([2]; 50 μM compound 30 min)
CC(C)=CCC/C(C)=C/CC/C(C)=C/CC/C(C)=C/CC1=C(C)C(=O)c2ccccc2C1=O [MK-4, menaquinone 4, reference compound] | had no effect on pol activity | weak effect | moderate inhibitory effect |  |  | 
CC(C)=CCC/C(C)=C/CC1=C(C)C(=O)c2ccccc2C1=O [MK-2] | inhibited the activity | suppressed inflammation |  | 35.3 ± 2.1 | significantly suppressed | significantly suppressed
CC(C)=CCC/C(C)=C/CC/C(C)=C/CC1=C(C)C(=O)c2ccccc2C1=O [MK-3] | inhibited the activity | weak effect | moderate inhibitory effect |  |  | 
CC(C)=CCC1=C(C)C(=O)c2ccccc2C1=O [MK-1] | inhibited the activity | suppressed inflammation |  |  |  | significantly suppressed
